Test results taken from patent publication US20170183306A1, “CYCLIC COMPOUNDS HAVING A 1,3 DIAMINO-FUNCTIONALITY FOR USE IN THE TREATMENT OF HIV INFECTION” (Universite Paris Descartes, priority 2014, published 2017).
Read-outs that look alike come from different tables or passages of the source.

Columns and labels:
Type in all cases: cell-based
[1] = system: wild type NL4-3 virus (HIV-1) in HeLa-p4 cells; experiment: HeLa-p4 single-cycle HIV-1 infectivity, beta-galactosidase CPRG test; conditions: 48 hours after infection, control = NL4-3 virus alone; for activity at 50 µM / activity at 100 µM / activity at 200 µM: Human immunodeficiency virus 1, NL43, HeLaP4; for activity at 50 µM: read-out: Hela-p4 CPRG 50 μM; for activity at 100 µM: read-out: Hela-p4 CPRG 100 μM
Procedure: (§1) HeLa-p4 cells are HeLa CD4 LTR-LacZ wherein LacZ expression is induced by the trans-activating protein Tat of HIV, making possible the precise quantification of HIV-1 infectivity from a single replication cycle. HeLa-CD4 cells growing exponentially at a density of 1×10^4/mL were placed in 96-well plates and infected the following day with 1 ng of HIV p24 antigen in the presence of different concentrations of compounds. The titles for a single cycle of the viruses were determined 48 hours after infection by quantifying the beta-galactosidase activity in lysates P4 by colorimetric test (CPRG, Promega) based on the cleavage of chlorophenol red-beta-D-galactopyranoside (CPRG) by beta-galactosidase. A cell viability assay measuring the absorbance at […] using the yellow tetrazolium reagent MTS [[…]] (Promega) was carried out.
(§2) For the helap4 cells experiments, the efficacy of the compounds is determined in comparison with control cells containing wild type NL4-3 virus alone (i.e. without any added compound) and is expressed as percentage of control. Then, the viral replication was increased for several compounds at the 50 and 100 μM concentrations with an absence of cytotoxic effects at the same concentrations (MTS test) (table 1).

[2] = system: HeLa-p4 cells; experiment: Cell viability assay (MTS) on HeLa-p4 cells
Procedure: as §1, §2

[3] = system: J-Lat cells; experiment: J-Lat cells, percentage of GFP-positive cells by cytometry; conditions: 24 h, compound alone
Procedure: The J-Lat were grown in RPMI 1640 medium (Gibco-BRL) supplemented with 10% fetal bovine serum, 50 U/ml of penicillin, […] of streptomycin at 37 uC in a humidified 95% air/5% CO2 atmosphere. The cells were plated at 5.105 cells in a 96 well-plate. TNF ? was purchased from Immunosource. SAHA (suberoylanilide hydroxamic acid), prostratin (12-deoxyphorbol-13-acetate) and vorinostat were obtained from Sigma-Aldrich. The J-Lat cells were treated for 24 h with the different compounds alone. The cells were washed twice in PBS, re-suspended in PBS containing 4% paraformaldehyde and fixed for 30 min. Cells were next washed and re-suspended in PBS. The percentage of GFP-positive cells was measured with a LSRFortessa cytometer (Becton-Dickinson) using FACSDiva Version 6.1.3 according to the manufacturer's instructions.
The results for the J-Lat cells experiments are expressed as a percentage of the living fluorescent cells. In this model, some slight increase of viral production measured by fluorescence are quantified (table 1).

Row | Compound | activity at 50 µM ([1]; 50 μM) | activity at 100 µM ([1]; 100 μM) | Hela-p4 MTS 50 μM ([2]; 50 μM, cell viability) | Hela-p4 MTS 100 μM ([2]; 100 μM, cell viability) | J-lat 50 μM [3] | J-lat 100 μM [3] | activity at 200 µM [1] | Hela-p4 MTS 200 μM ([2]; cell viability) | Hela-p4 CPRG 50 μM ([1]; 50 μM) | Hela-p4 CPRG 100 μM ([1]; 100 μM) | Hela-p4 MTS 50 μM [2] | Hela-p4 MTS 100 μM [2]
1 | N[C@@H]1C[C@H](N)CN(CCCCc2ccccc2)C1 [ECO02-026-C, 1-(4-phenylbutyl)piperidine-3,5-diamine] | 30% | 31% | 26 | 26 | 65.0 percentage of the living fluorescent cells |  |  |  |  |  |  | 
2 | N[C@@H]1C[C@H](N)CN(c2ccccc2)C1 [ECO01-037-C, 1-phenylpiperidine-3,5-diamine] | 103% | 103% | 97 | 106 | 0.6 percentage of the living fluorescent cells | 0.2 percentage of the living fluorescent cells |  |  |  |  |  | 
3 | N[C@@H]1C[C@H](N)CN(S(=O)(=O)c2ccccc2)C1 [ECO03-001-B, 1-(phenylsulfonyl)piperidine-3,5-diamine] | 118% | 170% | 97 | 104 | 0.6 percentage of the living fluorescent cells |  | 360% | 109 |  |  |  | 
4 | N[C@@H]1C[C@H](N)CN(c2ccc3c(c2)OCO3)C1 [ECO01-042-C] | 146% | 104% | 85 | 60 | 0.2 percentage of the living fluorescent cells | 0.4 percentage of the living fluorescent cells |  |  |  |  |  | 
5 | COc1ccc(-c2ccc(N3C[C@H](N)C[C@H](N)C3)cc2)cc1 [ECO02-029-C, 1-(4′-methoxy-[1,1′-biphenyl]-4-yl)piperidine-3,5-diamine4-(2-((3S,5R)-3,5-diaminopiperidin-1-yl)ethyl)phenol] | 29% | 30% | 25 | 25 | 2.4 percentage of the living fluorescent cells |  |  |  |  |  |  | 
6 | N[C@@H]1C[C@H](N)CN(c2ccc(NC(=O)c3ccccc3)c(O)c2)C1 [AB-120, N-(4-((3S,5R)-3,5-diaminopiperidin-1-yl)-2-hydroxyphenyl)benzamide] | 144% | 230% | 94 | 90 | 0.1 percentage of the living fluorescent cells | 12.3 percentage of the living fluorescent cells | 215% | 55 |  |  |  | 
7 | CC(C)(C)OC(=O)N[C@@H]1C[C@H](NC(=O)OC(C)(C)C)CN(Cc2ccco2)C1 [ECO02-058-C, di-tert-butyl (1-(furan-2-ylmethyl)piperidine-3,5-diyl)dicarbamate] | 110% | 159% | 105 | 88 | 1.4 percentage of the living fluorescent cells |  | 194% | 87 |  |  |  | 
8 | COc1cccc(CCN2C[C@H](NC(C)=O)C[C@H](NC(C)=O)C2)c1 [ECO02-072-C, N,N′-(1-(3-methoxyphenethyl)piperidine-3,5-diyl)diacetamide] | 107% | 167% | 111 | 98 | 2.1 percentage of the living fluorescent cells |  | 242% | 84 |  |  |  | 
9 | 1-(3,5-diaminopiperidin-1-yl)-2-(3-methoxyphenyl)ethanone [ECO02-030-C] |  |  |  |  | 0.5 percentage of the living fluorescent cells | 0.1 percentage of the living fluorescent cells |  |  | 139 percentage of control | 166 percentage of control | 109 | 107
10 | COc1ccc(CCN2C[C@H](N3C[C@H](N)C[C@H](N)C3)C[C@H](N3C[C@H](N)C[C@H](N)C3)C2)cc1OC [AB-103, (3S,3′R,3″S,5R,5′S,5″R)-1′-(3,4-dimethoxyphenethyl)-[1,3′:5′,1″-terpiperidine]-3,3″,5,5″-tetraamine] | 125% | 143% | 83 | 84 | 0.2 percentage of the living fluorescent cells | 0.4 percentage of the living fluorescent cells |  |  |  |  |  | 
